# Laboratory results taken from ChEMBL document CHEMBL1687702, “Discovery of New Human A(2A) Adenosine Receptor Agonists: Design, Synthesis, and Binding Mode of Truncated 2-Hexynyl-4'-thioadenosine” (ACS Med Chem Lett, 2010).
# Legend:
# Adenosine receptor A2a [1] = target: T1, Adenosine receptor A2a (Homo sapiens, UniProt P29274); assay: Displacement of [3H]CGS21680 from human adenosine A2A receptor in HEK293 cells; type: cell-based
# [2] = target: T2, Adenosine receptor A1 (Homo sapiens) (UniProt P30542); assay: Displacement of [3H]CCPA from human adenosine A1 receptor expressed in CHO cells at 10 uM; type: cell-based
# T2 sequence (whole entry): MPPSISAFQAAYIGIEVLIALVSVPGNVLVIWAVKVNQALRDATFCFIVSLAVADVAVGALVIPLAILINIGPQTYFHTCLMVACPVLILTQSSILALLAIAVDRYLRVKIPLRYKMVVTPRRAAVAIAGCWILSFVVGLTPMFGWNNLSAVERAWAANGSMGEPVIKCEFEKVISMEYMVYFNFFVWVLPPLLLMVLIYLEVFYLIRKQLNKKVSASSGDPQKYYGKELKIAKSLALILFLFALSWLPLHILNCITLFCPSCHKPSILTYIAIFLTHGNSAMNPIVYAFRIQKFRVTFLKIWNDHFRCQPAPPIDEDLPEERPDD
# Adenosine receptor A3 = target: T3, Adenosine receptor A3 (Homo sapiens, UniProt P0DMS8); assay: Displacement of [125I]I-AB-MECA from human adenosine A3 receptor expressed in CHO cells […]; type: cell-based
# T3 sequence (P0DMS8 whole entry): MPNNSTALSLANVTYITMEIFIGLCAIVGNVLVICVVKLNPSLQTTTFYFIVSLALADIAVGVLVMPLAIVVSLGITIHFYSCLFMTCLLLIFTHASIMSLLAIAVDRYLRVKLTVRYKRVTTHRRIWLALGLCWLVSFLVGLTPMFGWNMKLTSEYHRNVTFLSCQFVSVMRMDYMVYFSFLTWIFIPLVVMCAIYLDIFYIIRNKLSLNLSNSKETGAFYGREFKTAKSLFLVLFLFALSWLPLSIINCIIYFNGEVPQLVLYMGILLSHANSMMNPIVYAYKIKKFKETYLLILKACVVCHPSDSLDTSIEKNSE
# Adenosine receptor A2a [3] = target: T1, Adenosine receptor A2a; assay: Displacement of [3H]CGS21680 from human adenosine A2A receptor in HEK293 cells at 10 uM; type: cell-based
# Adenosine receptor A2a [4] = target: T1, Adenosine receptor A2a; assay: Agonist activity at human adenosine A2A receptor expressed in CHO cells by cyclic AMP functional assay; type: cell-based
# Adenosine receptor A2b = target: T4, Adenosine receptor A2b (Homo sapiens, UniProt P29275); assay: Agonist activity at human adenosine A2B receptor expressed in CHO cells by cyclic AMP functional assay; type: cell-based
# T4 sequence (P29275 whole entry): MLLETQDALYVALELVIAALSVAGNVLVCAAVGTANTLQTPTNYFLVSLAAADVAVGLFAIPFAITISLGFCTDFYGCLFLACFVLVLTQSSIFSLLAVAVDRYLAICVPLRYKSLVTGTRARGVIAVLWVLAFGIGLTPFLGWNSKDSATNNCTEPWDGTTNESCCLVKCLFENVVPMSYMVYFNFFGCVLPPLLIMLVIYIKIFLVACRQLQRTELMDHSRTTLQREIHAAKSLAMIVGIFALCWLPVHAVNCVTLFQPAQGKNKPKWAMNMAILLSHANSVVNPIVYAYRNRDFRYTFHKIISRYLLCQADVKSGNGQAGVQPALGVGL
# [5] = target: T5, Adenosine receptor A3 (Homo sapiens) (UniProt P0DMS8); assay: Antagonistic activity at human adenosine A3 receptor expressed in CHO cells assessed as inhibition of Cl-IB-MECA mediated cyclic AMP production by Schild assay; type: functional, cell-based
# T5 sequence (whole entry): T3 sequence (P0DMS8 whole entry)
# T1 sequence (P29274 whole entry): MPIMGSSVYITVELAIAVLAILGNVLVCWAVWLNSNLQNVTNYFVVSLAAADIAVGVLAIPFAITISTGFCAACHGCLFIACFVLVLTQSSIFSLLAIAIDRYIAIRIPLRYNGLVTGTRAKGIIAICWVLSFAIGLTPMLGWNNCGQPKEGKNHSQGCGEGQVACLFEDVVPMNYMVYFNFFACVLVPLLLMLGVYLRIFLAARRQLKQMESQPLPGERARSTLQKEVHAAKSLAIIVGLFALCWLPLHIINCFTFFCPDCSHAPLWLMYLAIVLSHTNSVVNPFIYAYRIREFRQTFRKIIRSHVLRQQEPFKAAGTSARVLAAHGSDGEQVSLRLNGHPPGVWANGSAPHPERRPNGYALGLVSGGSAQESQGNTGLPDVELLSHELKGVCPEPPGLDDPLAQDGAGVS
smiles,measurement,setting,value
CCCC/C=C/c1nc(N)c2ncn([C@@H]3SC[C@@H](O)[C@H]3O)c2n1,Ki,Adenosine receptor A2a [1],72 nM
same,inhibition,[2],16.2%
same,Ki,Adenosine receptor A3,13.2 nM
same,inhibition,Adenosine receptor A2a [3],95.9%
CCCCC#Cc1nc2c(N)ncnc2n1[C@@H]1SC[C@@H](O)[C@H]1O,inhibition,[2],49.3%
same,Ki,Adenosine receptor A3,20 nM
same,inhibition,Adenosine receptor A2a [3],46.5%
CCCC/C=C/c1nc2c(N)ncnc2n1[C@@H]1SC[C@@H](O)[C@H]1O,inhibition,[2],3.7%
same,Ki,Adenosine receptor A3,259 nM
same,inhibition,Adenosine receptor A2a [3],22.8%
CCCCC#Cc1nc(N)c2ncn([C@@H]3SC[C@@H](O)[C@H]3O)c2n1,inhibition,[2],38.9%
same,EC50,Adenosine receptor A2a [4],12 nM
same,EC50,Adenosine receptor A2b,10 µM
same,inhibition,Adenosine receptor A2a [3],97.2%
same,Kb,[5],1.69 nM
